Data set [1] in a line: Liver microsomes stability, mouse. Particulars: for half-life at 2 μM / microsomal CLint at 2 μM: male, mouse, microsomes; for Remaining Percentage (%) after 60 min, Mouse: mouse liver microsomes with NADPH, 2 μM. As to the method: (§1) The objective of this study was to estimate in vitro metabolic stability of representative compounds of the application in pooled human and male mouse liver microsomes. The concentrations of parent compounds in reaction systems were evaluated by LC-MS/MS for estimating the stability in pooled human and male mouse liver microsomes. The in vitro intrinsic clearances of test compounds were determined as well.
(§2) A master solution in the “Incubation Plate” containing phosphate buffer, ultra-pure H2O, MgCl2 solution and liver microsomes was made according to Table 3. The mixture was pre-warmed at 37° C. water bath for 5 minutes.
(§3) 40 μL of 10 mM NADPH solution was added to each well. The final concentration of NADPH was 1 mM. The negative control samples were prepared by replacing NADPH with 40 μL of ultra-pure H2O. Samples were prepared in duplicate. Negative controls were prepared in singlet.
(§4) The reaction was started with the addition of 4 μL of 200 μM test compounds or control compounds to each master solution to get the final concentration of 2 μM. This study was performed in duplicate.
(§5) Aliquots of 50 μL were taken from the reaction solution at 0, 15, 30, 45 and 60 minutes. The reaction solutions were stopped by the addition of 4 volumes of cold methanol with IS (100 nM alprazolam, 200 nM imipramine, 200 nM labetalol and 2 μM ketoprofen). Samples were centrifuged at 3,220 g for 40 minutes. Aliquot of 90 μL of the supernatant was mixed with 90 μL of ultra-pure H2O and then was used for LC-MS/MS analysis.
(§6) LC/MS analysis was performed for all samples from this study using a Shimadzu liquid chromatograph separation system equipped with degasser DGU-20A5R; solvent delivery unit LC-30AD; system controller SIL-30AC; column oven CTO-30A; CTC Analytics HTC PAL System. Mass spectrometric analysis was performed using an Triple Quad™ 5500 instrument.
(§7) All calculations were carried out using Microsoft Excel. Peak areas were determined from extracted ion chromatograms. The slope value, k, was determined by linear regression of the natural logarithm of the remaining percentage of the parent drug vs. incubation time curve.
(§8) The in vitro half-life (in vitro t1/2) was determined from the slope value:
(§9) Conversion of the in vitro t1/2 (min) into the in vitro intrinsic clearance (in vitro CLint, in μL/min/mg proteins) was done using the following equation (mean of duplicate determinations): […]

The target in the next data set is human 5-HT2A receptor (Homo sapiens, UniProt P28223). Kind of data set: biochemical.
Data set [2] in a line: Liver microsomes stability, rat. The settings on record: for Remaining Percentage (%) after 60 min, Rat: rat liver microsomes with NADPH, 2 μM; for half-life at 2 μM / microsomal CLint at 2 μM: rat, microsomes.
The nature of data set [3]: Liver microsomes stability, human. The settings on record: for Remaining Percentage (%) after 60 min, Human: human liver microsomes with NADPH, 2 μM; for half-life at 2 μM / microsomal CLint at 2 μM: human, microsomes. As to the method: as §1, §2, §3, §4, §5, §6, §7, §8, §9
Data set [4] deals with T1, human 5-HT2A (h5-HT2A) receptor (Homo sapiens, UniProt P28223).
T1 construct: expressed in transfected cells
Kind of data set: FLIPR assay, human 5-HT2A, agonist mode. In kind it is cell-based. The protocol:
I.c. Experimental Methods and Procedures: • 1. […] One day before the assays, the cells were detached using TrypLE™ Express and cells were counted using cell counter. […] 20000 cells/well were seeded in 30 μl/well culture medium to a 384-well cell plate and cells were incubated overnight at 37° C., 5% (v/v) CO2. • 4. On the assay day, 2×dye solution was prepared following the manual of the FLIPR® Calcium 6 Assay Kit: i. The dye was diluted with assay buffer (20 mM HEPES in 1×HBSS, PH7.4); ii. Probenecid was added to the final concentration of 5 mM; iii. […] Medium was removed from cell plate by flicking the cell plate on towel papers. • 6. […] The cell plate was placed on plate shaker, the plate was agitated at 600 rpm for 2 minutes. The plate was incubated at 37° C. for 2 hours followed by additional 15-minute incubation at 25° C. • 8. 3×compound in assay buffer was prepared: a. Reference compounds were diluted to required concentration with DMSO. The compounds were added to a 384-well compound plate; b. Serial dilutions were performed; c. 10 mM test compounds were added to the compound plate, and 3-fold serial dilutions were performed. d. […] Add 20 μl/well assay buffer to the compound plate; f. […] The cell plate, compound plate and tips were put into FLIPR, 10 μl of 3× compound was transferred to the cell plate per well with FLIPR.
• i. […] Calculated the percentage activation by using following equation: […]

Sequence of human 5-HT2A receptor (P28223 whole entry): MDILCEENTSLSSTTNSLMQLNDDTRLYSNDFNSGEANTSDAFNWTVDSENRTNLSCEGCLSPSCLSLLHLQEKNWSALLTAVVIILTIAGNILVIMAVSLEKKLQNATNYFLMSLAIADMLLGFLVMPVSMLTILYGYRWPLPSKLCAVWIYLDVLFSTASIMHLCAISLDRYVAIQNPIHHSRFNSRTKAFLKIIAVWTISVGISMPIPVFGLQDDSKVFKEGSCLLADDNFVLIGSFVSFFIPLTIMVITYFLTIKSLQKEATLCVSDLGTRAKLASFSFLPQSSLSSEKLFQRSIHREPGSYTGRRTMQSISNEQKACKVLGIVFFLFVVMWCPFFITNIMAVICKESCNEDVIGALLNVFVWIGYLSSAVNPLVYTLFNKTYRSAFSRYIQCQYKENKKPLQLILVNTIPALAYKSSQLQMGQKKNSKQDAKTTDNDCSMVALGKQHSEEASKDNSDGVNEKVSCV
T1 sequence (P28223 whole entry): as above
Procedure for human 5-HT2A receptor: Human 5-HT2A: Radioligand Binding Assay:
II.3 Experiment Procedure: • i. Prepared the assay buffer following the table below;
• ii. Preparation of 8 doses of reference and test compounds starting from 10 mM stock solution as requested by 5-fold serial dilutions with 100%; • iii. Prepared (v/v) DMSO: a. 50 μl/well of 0.5% (v/v) PEI was added to UniFilter-96 GF/B plates. The plates were sealed and incubates at 4° C. for 3 hrs; b. After incubation, the plates were washed 3 times with ice-cold wash buffer (50 mM Tris, pH7.4); • iv. Preparation of assay plates: a. Cell membrane were diluted with assay buffer and 330 μl/well was added to 96 round deep well plates to reach a concentration of 20 μg/well; b. 8 concentrations of reference or test compounds were prepared and 110 μl/well was added to 96 round deep well plates; c. [3H]-ketanserin was diluted with assay buffer to 5 nM (5× final concentration) and 110 μl/well was added to 96 round deep well plates. • v. The plate was centrifuged at 1000 rpm for 30 secs and then agitated at 600 rpm, R.T. for 5 min. • vi. The plates were sealed and incubates at 27° C. for 90 min. • vii. The incubation was stopped by vacuum filtration onto GF/B filter plates followed by 4 times washing with ice-cold wash buffer (50 mM Tris, pH7.4). • viii. […] The filter plates were sealed and 40 μl/well of scintillation cocktail was added. • x. The plate was read by using a Microbeta2 microplate counter.
For reference and test compounds, the results are expressed as % Inhibition, using the normalization equation: N=100−100×(U−C2)/(C1−C2), where U is the unknown value, C1 is the average of high controls, and C2 is the average of low controls.

`[2H]c1[nH]c2c([2H])c([2H])c([2H])c([2H])c2c1CCN(C)C` [I-A-2, 2-(1H-indol-3-yl-2,4,5,6,7-d5)-N,N-dimethylethan-1-amine]: in data set [1], the half-life at 2 μM is 17.4 min; the intrinsic metabolic clearance (microsomal CLint) at 2 μM was 41.2 µL/min/mg; the “Remaining Percentage (%) after 60 min, Mouse” value is recorded as 59.38%. Moreover, the 50% inhibitory concentration (IC50) against human 5-HT2A receptor is under 500 nM. For the same compound, in data set [2], the “Remaining Percentage (%) after 60 min, Rat” value was 17.65%; the half-life at 2 μM stood at 24 min; the microsomal CLint at 2 μM turned out to be 36 µL/min/mg. In addition, in data set [3], the “Remaining Percentage (%) after 60 min, Human” value was 0.76%; the half-life at 2 μM amounted to 8.52 min; the intrinsic clearance (microsomal CLint) at 2 μM was 18.8 µL/min/mg. Moreover, in data set [4], the 50% effective concentration (EC50) was under 1000 nM.

Turning to `[2H]C([2H])([2H])N(C([2H])([2H])[2H])C([2H])([2H])C([2H])([2H])c1c[nH]c2ccccc12` [I-A-1, 2-(1H-indol-3-yl)-N,N-bis(methyl-d3)ethan-1-amine-1,1,2,2-d4], in data set [1], the half-life at 2 μM turned out to be 87.2 min; the microsomal CLint at 2 μM was 39.2 µL/min/mg; the “Remaining Percentage (%) after 60 min, Mouse” value was 62.07%. Also, the IC50 at human 5-HT2A receptor is under 500 nM. In addition, in data set [2], the “Remaining Percentage (%) after 60 min, Rat” value is recorded as 9.38%; the half-life at 2 μM was 17.6 min; the microsomal CLint at 2 μM is 39.7 µL/min/mg. Besides, in data set [3], the “Remaining Percentage (%) after 60 min, Human” value amounted to 0.46%; the half-life at 2 μM was found to be 7.73 min; the microsomal CLint at 2 μM was found to be 19 µL/min/mg. For the same compound, the EC50 in data set [4] is under 1000 nM.

Take `[2H]C([2H])([2H])Oc1ccc2[nH]cc(C([2H])([2H])C([2H])([2H])N(C([2H])([2H])[2H])C([2H])([2H])[2H])c2c1` [I-A-6, 2-(5-(methoxy-d3)-1H-indol-3-yl)-N,N-bis(methyl-d3)ethan-1-amine-1,1,2,2-d4]: in data set [1], the half-life at 2 μM was found to be 97.5 min; the microsomal CLint at 2 μM was determined as 36.8 µL/min/mg; the “Remaining Percentage (%) after 60 min, Mouse” value was determined as 65.29%. Besides, in data set [2], the “Remaining Percentage (%) after 60 min, Rat” value was found to be 5.25%; the half-life at 2 μM is 9.88 min; the intrinsic metabolic clearance (microsomal CLint) at 2 μM was 9.26 µL/min/mg. Besides, in data set [3], the “Remaining Percentage (%) after 60 min, Human” value amounted to 15.50%; the half-life at 2 μM amounted to 2.3 min; the microsomal CLint at 2 μM came out at 16.4 µL/min/mg.

Compound `CN(C)CCc1c[nH]c2ccccc12` [DMT, N,N-dimethyltryptamine, reference compound] yielded a 50% inhibitory concentration (IC50) at human 5-HT2A receptor of under 500 nM. Also, the EC50 in data set [4] was under 1000 nM.

For the origin of these results see patent US20240166599A1, “INDOLE DERIVATIVES AS SEROTONERGIC AGENTS USEFUL FOR THE TREATMENT OF DISORDERS RELATED THERETO” (Mindset Pharma Inc., priority 2021, published 2024).
